According to the OligoGym collection:
Several values for one entry are separate records, joined by “and”; a condition that tells them apart may be missing. Identical values can stand only once. After the bases stand the sugars from the 5' end (letter, count) and the backbone: PS all phosphorothioate, else s phosphorothioate and o phosphodiester by linkage. Methylation of C is not given here. e = 2'-O-(2-methoxyethyl) (MOE); k = constrained ethyl (cEt); d = 2'-deoxy (DNA)

Target: IRF4
Conditions: ASO

Sequence | target mRNA inhibition (SK-MEL-28, 4 µM) | target mRNA inhibition (MM.1R, 1 µM) | other results
AGTTAAGGTGCCTCAA (sugars k3 d10 k3, PS) | -1% |  | 
AGTTCATGTAAAGTCT (sugars k3 d10 k3, PS) | 56% and 61% |  | 
AGTTCATGTAAAGTCT (sugars kdddddddddkekeke, PS) |  | 29% and 10% | 
AGTTCATGTAAAGTCT (sugars kkddddddddddkeke, PS) |  | 45% and 49% | 
AGTTGTAAATGAGTCG (sugars k3 d10 k3, PS) | 85% |  | 
AGTTGTAAATGAGTCG (sugars kdddddddddkekeke, PS) |  | 47% | 
AGTTGTAAATGAGTCG (sugars kkkdddddddddkeke, PS) |  | 77% | target mRNA inhibition (MM.1R, 0.074 µM): 29%; target mRNA inhibition (MM.1R, 0.222 µM): 58%; target mRNA inhibition (MM.1R, 0.666 µM): 76%; target mRNA inhibition (MM.1R, 2 µM): 90%
ATAAAGACCTTAACCA (sugars k3 d10 k3, PS) | 27% |  | 
ATAATTGGCACGAGGA (sugars k3 d10 k3, PS) | 67% |  | 
ATACATGTCTGGTTTA (sugars k3 d10 k3, PS) |  | 4% | 
ATACTGGTTGGTTGGC (sugars k3 d10 k3, PS) |  | 69% and 75% | target mRNA inhibition (KMS11, 0.2 µM): 74% and 76%; target mRNA inhibition (MM.1R, 0.0625 µM): 51%; target mRNA inhibition (MM.1R, 0.25 µM): 61%; target mRNA inhibition (MM.1R, 4 µM): 86%
ATACTGTAAGGGCTGC (sugars k3 d10 k3, PS) | 54% |  | 
ATAGGAAGTTTACTAA (sugars k3 d10 k3, PS) | 13% |  | 
ATAGTAAATATCCTGT (sugars k3 d10 k3, PS) | 36% |  | 
ATATTCCAACAGGCGG (sugars k3 d10 k3, PS) | 53% |  | 
ATCAGAAATCACGAGG (sugars k3 d10 k3, PS) | 71% | 6% | target mRNA inhibition (MM.1R, 0.0625 µM): 2%; target mRNA inhibition (MM.1R, 0.074 µM): -9%; target mRNA inhibition (MM.1R, 0.222 µM): -12%; target mRNA inhibition (MM.1R, 0.25 µM): 1%; target mRNA inhibition (MM.1R, 0.666 µM): -4%; target mRNA inhibition (MM.1R, 2 µM): 9%; target mRNA inhibition (MM.1R, 4 µM): 36%
ATCCACAATCAGCAAG (sugars k3 d10 k3, PS) | 51% |  | 
ATCCACTGGCACCAAG (sugars k3 d10 k3, PS) |  | 5% | 
ATCTATAAGATGTATA (sugars k3 d10 k3, PS) | -1% |  | 
ATCTGTATCATGCATA (sugars k3 d10 k3, PS) |  | 24% | 
ATCTTCACTGTTAGCT (sugars k3 d10 k3, PS) | 74% |  | 
ATGACGACTTAAGCTA (sugars k3 d10 k3, PS) | 62% |  | 
ATGATGTATACCAACG (sugars k3 d10 k3, PS) | 86% |  | 
ATGCAAGCCCGTTAAT (sugars k3 d10 k3, PS) | 4% |  | 
ATGCTTGGCTCTGTGG (sugars k3 d10 k3, PS) | 76% |  | 

Sequence | target mRNA inhibition (SK-MEL-28, 4 µM) | target mRNA inhibition (MM.1R, 1 µM) | other results
ATGGAACCCCAAAATC (sugars k3 d10 k3, PS) | 24% |  | 
ATGGAGATACTTGTAC (sugars k3 d10 k3, PS) | 62% |  | 
ATGGCAGTCTACAGAA (sugars k3 d10 k3, PS) | -2% |  | 
ATGGCGAGTTGGCACA (sugars k3 d10 k3, PS) |  | 49% and 48% | 
ATGGCGGATAGATCTG (sugars k3 d10 k3, PS) | 57% |  | 
ATGTAAGTGATAGGTA (sugars k3 d10 k3, PS) | 70% |  | 
ATGTAGGGATACAGCA (sugars k3 d10 k3, PS) | 74% |  | 
ATGTGATAGCTGAGCT (sugars k3 d10 k3, PS) |  | 26% | 
ATGTGATAGCTGAGCT (sugars kddddddddddkekek, PS) |  | -3% | 
ATGTGTATTACTCTTA (sugars k3 d10 k3, PS) |  | 52% and 49% | 
ATGTGTATTACTCTTA (sugars kkdddddddddkdkdk, PS) |  | 44% and 32% | 
ATGTTAGCCAATTCCT (sugars kkdddddddddekeke, PS) |  | 27% and 30% | 
ATGTTAGCCAATTCCT (sugars kkdddddddddkekek, PS) |  | 28% and 44% | 
ATTATATACTGGTTGG (sugars k2 d9 e3 k2, PS) |  | 37% | 
ATTCCAAACCTTAAGC (sugars k3 d10 k3, PS) |  | -1% | 
ATTCCGCGCGCAGAGC (sugars k3 d10 k3, PS) |  | -21% | 
ATTCTCCTCAACCGCT (sugars k3 d10 k3, PS) | 35% |  | 
ATTCTTGAATAGAGGA (sugars k3 d10 k3, PS) |  | 16% | 
ATTGAAATGGAGCATC (sugars k3 d10 k3, PS) | -1% |  | 
ATTTATAACCGGTAGA (sugars k3 d10 k3, PS) |  | 28% | 
ATTTATGCCCTCGCTC (sugars k3 d10 k3, PS) | 26% |  | 
ATTTTTTGGTTAGTCC (sugars k3 d10 k3, PS) | 53% |  | 
CAAAACGGACTGGAAC (sugars k3 d10 k3, PS) | 16% |  | 
CAAAAGGTAGTAGACC (sugars k3 d10 k3, PS) |  | 11% | 
CAAAAGTACCACAGGG (sugars k3 d10 k3, PS) | 40% |  | 

Sequence | target mRNA inhibition (SK-MEL-28, 4 µM) | target mRNA inhibition (MM.1R, 1 µM) | other results
CAAAAGTGCCACAACT (sugars k3 d10 k3, PS) | 10% |  | 
CAAACACTAATACCTA (sugars k3 d10 k3, PS) | 31% |  | 
CAAACTATAATTGGCA (sugars k3 d10 k3, PS) | 53% |  | 
CAAAGACCAGCTTTTT (sugars k3 d10 k3, PS) | 50% |  | 
CAAATTAAAGAGCGCA (sugars k3 d10 k3, PS) | 57% |  | 
CAACTAGCAGGGCACG (sugars k3 d10 k3, PS) | 38% |  | 
CAAGAACTGCTGTGTG (sugars k3 d10 k3, PS) | -5% |  | 
CAAGACAGGTCTCTAC (sugars k3 d10 k3, PS) | 34% |  | 
CAAGACATAAACCAAG (sugars k3 d10 k3, PS) | 51% |  | 
CAAGACCTAATCTACA (sugars k3 d10 k3, PS) | 12% |  | 
CAAGCAGTGATGTCAG (sugars k3 d10 k3, PS) |  | 60% and 51% | 
CAAGCAGTGATGTCAG (sugars kddddddddddkekek, PS) |  | 35% and 43% | 
CAAGCTTTCATTTGGG (sugars k3 d10 k3, PS) | 74% |  | 
CAAGGAGGCGGGCCTT (sugars k3 d10 k3, PS) | -2% |  | 
CAAGGCTACAGGCACG (sugars k3 d10 k3, PS) | 51% |  | 
CAAGTGTCTAAAGTCC (sugars k3 d10 k3, PS) |  | 3% | 
CAAGTGTCTAAAGTCC (sugars kkdddddddddekeke, PS) |  | 23% and 25% | 
CAATAGTCTAGCTGGG (sugars k3 d10 k3, PS) | 63% |  | 
CAATCTTAACCTGGAG (sugars k3 d10 k3, PS) |  | 40% | 
CACAGGCGCGGACGCA (sugars k3 d10 k3, PS) | 14% |  | 
CACATCAATGTTTTAG (sugars k2 d9 e3 k2, PS) |  | 12% and 11% | 
CACATCAATGTTTTAG (sugars kdddddddddkekeke, PS) |  | -2% and 18% | 
CACATCAATGTTTTAG (sugars kkdddddddddkdkdk, PS) |  | 28% and 37% | 
CACATCAATGTTTTAG (sugars kkdddddddddkekek, PS) |  | 19% and 34% | 
